Measured values as given in the NIST ThermoML archive (doi:10.1016/j.jct.2008.10.007).

Experiments:
[1] = excess molar enthalpy (molar enthalpy of mixing); xn = mol fraction of the nth substance listed; conditions: 298.15 K, 101 kPa, Liquid, Calvet calorimetry
[2] = xn = mol fraction of the nth substance listed; conditions: 298.15 K, 101 kPa, Liquid, Vibrating tube method

ClCCCCCl [1,4-dichlorobutane] + CCCOC(C)=O
Conditions	excess molar enthalpy [kcal/mol]	mass density [kg/m3]
[1], x2 = 0.0555	-0.00478	–
[1], x2 = 0.1316	-0.0131	–
[1], x2 = 0.2183	-0.0234	–
[1], x2 = 0.3079	-0.0359	–
[1], x2 = 0.3915	-0.048	–
[1], x2 = 0.456	-0.055	–
[1], x2 = 0.4663	-0.0559	–
[1], x2 = 0.4979	-0.0576	–
[1], x2 = 0.5721	-0.0564	–
[1], x2 = 0.6576	-0.0523	–
[1], x2 = 0.7494	-0.0447	–
[1], x2 = 0.8443	-0.0318	–
[1], x2 = 0.9296	-0.0174	–
[2], x2 = 0.0583	–	1118.51
[2], x2 = 0.1175	–	1103.2
[2], x2 = 0.1743	–	1088.55
[2], x2 = 0.232	–	1073.72
[2], x2 = 0.3494	–	1043.76
[2], x2 = 0.465	–	1014.55
[2], x2 = 0.523	–	999.98
[2], x2 = 0.5845	–	984.6
[2], x2 = 0.6424	–	970.19
[2], x2 = 0.7011	–	955.64
[2], x2 = 0.7618	–	940.61
[2], x2 = 0.8813	–	911.2
[2], x2 = 0.9397	–	896.91

CCCOC(=O)CCC [propyl butanoate] + ClCCCCCCCl
Conditions	excess molar enthalpy [kcal/mol]	mass density [kg/m3]
[1], x1 = 0.0619	-0.00526	–
[1], x1 = 0.1445	-0.011	–
[1], x1 = 0.2343	-0.0182	–
[1], x1 = 0.3207	-0.0258	–
[1], x1 = 0.3911	-0.0327	–
[1], x1 = 0.4594	-0.0378	–
[1], x1 = 0.5174	-0.0404	–
[1], x1 = 0.5559	-0.0411	–
[1], x1 = 0.6181	-0.0402	–
[1], x1 = 0.6903	-0.037	–
[1], x1 = 0.7651	-0.0315	–
[1], x1 = 0.849	-0.0229	–
[1], x1 = 0.9334	-0.012	–
[2], x1 = 0.1123	–	1041.34
[2], x1 = 0.1686	–	1030.2
[2], x1 = 0.2265	–	1018.77
[2], x1 = 0.2841	–	1007.46
[2], x1 = 0.3424	–	995.99
[2], x1 = 0.4025	–	984.2
[2], x1 = 0.4598	–	973.01
[2], x1 = 0.5766	–	950.16
[2], x1 = 0.6959	–	926.91
[2], x1 = 0.755	–	915.37
[2], x1 = 0.8145	–	903.79
[2], x1 = 0.8778	–	891.49
[2], x1 = 0.9367	–	880.14
[2], x1 = 1	–	867.9

ClCCCCCCl [1,5-dichloropentane] + CCCOC(C)=O
Conditions	excess molar enthalpy [kcal/mol]	mass density [kg/m3]
[1], x2 = 0.0656	-0.00382	–
[1], x2 = 0.1426	-0.00478	–
[1], x2 = 0.2338	-0.0134	–
[1], x2 = 0.3247	-0.0239	–
[1], x2 = 0.4088	-0.0337	–
[1], x2 = 0.4844	-0.0392	–
[1], x2 = 0.5426	-0.0409	–
[1], x2 = 0.5428	-0.0411	–
[1], x2 = 0.6183	-0.0409	–
[1], x2 = 0.6974	-0.0366	–
[1], x2 = 0.7844	-0.0282	–
[1], x2 = 0.8682	-0.0184	–
[1], x2 = 0.9448	-0.00813	–
[2], x2 = 0.0592	–	1083.72
[2], x2 = 0.126	–	1070.79
[2], x2 = 0.1854	–	1059.08
[2], x2 = 0.2502	–	1046.15
[2], x2 = 0.3122	–	1033.6
[2], x2 = 0.3736	–	1021.02
[2], x2 = 0.495	–	995.63
[2], x2 = 0.5537	–	983.11
[2], x2 = 0.6672	–	958.42
[2], x2 = 0.7269	–	945.17
[2], x2 = 0.7802	–	933.16
[2], x2 = 0.8365	–	920.34
[2], x2 = 0.889	–	908.23
[2], x2 = 0.9471	–	894.67

ClCCCCCl [1,4-dichlorobutane] + CCCOC(=O)CC
Conditions	excess molar enthalpy [kcal/mol]	mass density [kg/m3]
[1], x2 = 0.0573	-0.00621	–
[1], x2 = 0.133	-0.0151	–
[1], x2 = 0.2168	-0.0308	–
[1], x2 = 0.3006	-0.0461	–
[1], x2 = 0.381	-0.0598	–
[1], x2 = 0.4539	-0.071	–
[1], x2 = 0.5117	-0.0743	–
[1], x2 = 0.5559	-0.0743	–
[1], x2 = 0.6419	-0.071	–
[1], x2 = 0.7366	-0.0621	–
[1], x2 = 0.8338	-0.0447	–
[1], x2 = 0.9261	-0.0227	–
[2], x2 = 0.0527	–	1118.03
[2], x2 = 0.1038	–	1102.83
[2], x2 = 0.1547	–	1087.98
[2], x2 = 0.2085	–	1072.56
[2], x2 = 0.2627	–	1057.37
[2], x2 = 0.3186	–	1041.98
[2], x2 = 0.3736	–	1027.16
[2], x2 = 0.49	–	996.65
[2], x2 = 0.5485	–	981.77
[2], x2 = 0.612	–	965.97
[2], x2 = 0.6735	–	950.93
[2], x2 = 0.7351	–	936.2
[2], x2 = 0.8004	–	920.88
[2], x2 = 0.866	–	905.76
[2], x2 = 0.9333	–	890.53

ClCCCCCCCl [1,6-dichlorohexane] + CCCOC(C)=O
Conditions	excess molar enthalpy [kcal/mol]	mass density [kg/m3]
[1], x2 = 0.0861	0.00598	–
[1], x2 = 0.1716	0.00478	–
[1], x2 = 0.2676	-0.00311	–
[1], x2 = 0.3149	-0.00765	–
[1], x2 = 0.3896	-0.0146	–
[1], x2 = 0.4563	-0.0196	–
[1], x2 = 0.5169	-0.0239	–
[1], x2 = 0.5684	-0.0253	–
[1], x2 = 0.5761	-0.0246	–
[1], x2 = 0.6268	-0.0241	–
[1], x2 = 0.6841	-0.022	–
[1], x2 = 0.7455	-0.0194	–
[1], x2 = 0.8101	-0.0153	–
[1], x2 = 0.8793	-0.0105	–
[1], x2 = 0.9463	-0.00574	–
[2], x2 = 0.0708	–	1053.44
[2], x2 = 0.1405	–	1042.95
[2], x2 = 0.208	–	1032.5
[2], x2 = 0.2725	–	1022.22
[2], x2 = 0.3392	–	1011.28
[2], x2 = 0.4656	–	989.61
[2], x2 = 0.584	–	968.14
[2], x2 = 0.6947	–	946.95
[2], x2 = 0.8017	–	925.34
[2], x2 = 0.8514	–	914.87
[2], x2 = 0.902	–	903.96
[2], x2 = 0.9502	–	893.34

CCCOC(=O)CC [propyl propanoate] + ClCCCCCCl
Conditions	mass density [kg/m3]
[2], x1 = 1	875.61

ClCCCCCCl [1,5-dichloropentane] + CCCOC=O
Conditions	excess molar enthalpy [kcal/mol]	mass density [kg/m3]
[1], x2 = 0.0772	0.0148	–
[1], x2 = 0.1733	0.0261	–
[1], x2 = 0.2797	0.0335	–
[1], x2 = 0.3611	0.0349	–
[1], x2 = 0.4265	0.0339	–
[1], x2 = 0.48	0.0323	–
[1], x2 = 0.5257	0.0301	–
[1], x2 = 0.5865	0.0263	–
[1], x2 = 0.6476	0.0215	–
[1], x2 = 0.7088	0.0163	–
[1], x2 = 0.7665	0.0115	–
[1], x2 = 0.8266	0.00717	–
[1], x2 = 0.8827	0.00406	–
[1], x2 = 0.9526	0.0012	–
[2], x2 = 0.1431	–	1073.06
[2], x2 = 0.215	–	1061.43
[2], x2 = 0.2831	–	1050.01
[2], x2 = 0.3476	–	1038.81
[2], x2 = 0.4101	–	1027.62
[2], x2 = 0.4756	–	1015.48
[2], x2 = 0.5351	–	1004.04
[2], x2 = 0.65	–	980.9
[2], x2 = 0.7551	–	958.34
[2], x2 = 0.8569	–	935.09
[2], x2 = 0.9046	–	923.69
[2], x2 = 0.953	–	911.75

CCCOC(C)=O [propyl ethanoate] + ClCCCCCCl
Conditions	mass density [kg/m3]
[2], x1 = 1	882.08

CCCOC(=O)CC [propyl propanoate] + ClCCCCCl
Conditions	mass density [kg/m3]
[2], x1 = 1	875.61

CCCOC(C)=O [propyl ethanoate] + ClCCCCl
Conditions	mass density [kg/m3]
[2], x1 = 1	882.08
